Measurements as given in US20120214862A1, “MODULATION OF FACTOR 7 EXPRESSION” (ISIS Pharmaceuticals, Inc., priority 2009, published 2012).
In the oligonucleotide strings, read from the 5' end, every base follows the letter of its sugar. An asterisk marks phosphorothioate; unmarked linkages are phosphodiester. Other units and linkages are bracketed, terminal groups are in braces. A string of capitals states the bases alone. e = 2'-O-(2-methoxyethyl) (MOE); [5mC] = 5-methylcytosine; d = 2'-deoxy (DNA)

These substances were tested on human Factor 7 mRNA (assay: Antisense inhibition of human Factor 7 mRNA in HepB3 cells, lipofectin, 50 nM, real-time RT-PCR). Details: Example 1; HepB3 cells, lipofectin, 50 nM, ~24 h, relative to untreated control cells.
Type: cell-based
Method: Antisense oligonucleotides targeted to a Factor 7 nucleic acid were tested for their effects on Factor 7 mRNA in vitro. Cultured HepB3 cells at a density of 4,000 cells per well were transfected using lipofectin reagent with 50 nM antisense oligonucleotide. After a treatment period of approximately 24 hours, RNA was isolated from the cells and Factor 7 mRNA levels were measured by real-time RT-PCR, as described herein. Factor 7 mRNA levels were adjusted according to total RNA content as measured by RIBOGREEN®. Results are presented as percent inhibition of Factor 7, relative to untreated control cells.
(§1) Antisense oligonucleotides targeted to a Factor 7 nucleic acid were designed and tested for their effects on Factor 7 mRNA in vitro. Certain antisense oligonucleotides from Table 3 were also retested for their effects on Factor 7 mRNA in vitro. Cultured HepB3 cells at a density of 4,000 cells per well were transfected using lipofectin reagent with 50 nM antisense oligonucleotide. After a treatment period of approximately 24 hours, RNA was isolated from the cells and Factor 7 mRNA levels were measured by real-time RT-PCR, as described herein. Human Factor 7 primer probe set RTS 2927 was used to measure mRNA levels. Factor 7 mRNA levels were adjusted according to total RNA content as measured by RIBOGREEN®. Results are presented as percent inhibition of Factor 7, relative to untreated control.
as §1, with “tested” for “tested for their effects on Factor 7 mRNA in vitro. Certain antisense oligonucleotides from Table 3 were also retested”
These gapmers were designed by creating gapmers shifted slightly upstream and downstream (i.e. “microwalk”) of the original gapmers from Table 7. Gapmers were also created with various motifs, e.g. 5-10-5 MOE, 3-14-3 MOE, and 2-13-5 MOE. These gapmers were tested in vitro. Cultured HepB3 cells at a density of 4,000 cells per well were transfected using lipofectin reagent with 50 nM antisense oligonucleotide. After a treatment period of approximately 24 hours, RNA was isolated from the cells and Factor 7 mRNA levels were measured by real-time RT-PCR. Factor 7 mRNA levels were adjusted according to total RNA content, as measured by RIBOGREEN®. Results are presented as percent inhibition of Factor 7, relative to untreated control cells.

Substance | % Inhibition (human Factor 7 mRNA) [%]
407944 (antisense e[5mC]*e[5mC]*eA*eG*eT*dG*dG*dG*dT*dG*dG*d[5mC]*dA*dG*dG*e[5mC]*eA*e[5mC]*e[5mC]*eA) [compound 407944] | 59
407619 (antisense eA*eG*eA*eA*eT*dA*dG*dG*dT*dA*dT*dT*dT*dT*dT*e[5mC]*e[5mC]*eA*e[5mC]*eA) [compound 407619] | 64
403090 (antisense eA*eG*eT*e[5mC]*e[5mC]*dT*dG*dG*dG*dT*d[5mC]*dA*dT*d[5mC]*dA*eG*e[5mC]*e[5mC]*eG*eG) [compound 403090] | 69
407934 (antisense e[5mC]*eT*eG*eA*eA*dG*dT*dG*dA*dA*dG*dA*dT*dG*dA*eT*eA*eA*eT*eG) [compound 407934] | 45
407597 (antisense eT*eG*eT*eT*eG*dA*d[5mC]*dA*dT*dT*d[5mC]*d[5mC]*d[5mC]*d[5mC]*dA*eT*eG*eG*eG*eA) [compound 407597] | 39
407954 (antisense e[5mC]*eA*eG*eG*eG*dA*dG*dA*dG*dA*dA*d[5mC]*dA*dT*d[5mC]*e[5mC]*eA*eA*eT*eT) [compound 407954] | 39
407904 (antisense eG*eA*eA*eA*e[5mC]*dA*dG*dT*dG*dG*dG*d[5mC]*d[5mC]*dG*d[5mC]*eG*eG*eA*eG*eA) [compound 407904] | 83
407924 (antisense eG*eA*eT*eT*eT*dG*dG*dT*dG*d[5mC]*d[5mC]*dA*dG*dG*dA*e[5mC]*eA*eG*eT*eT) [compound 407924] | 68

Same assay, conditions: Example 4; HepB3 cells, lipofectin, 50 nM, ~24 h, relative to untreated control

Substance | % Inhibition (human Factor 7 mRNA) [%]
422264 (antisense e[5mC]*eG*dG*dA*dA*dG*dA*dA*dG*dG*dG*dA*d[5mC]*dG*dG*eA*eA*eG*eG*eT) [compound 422264] | 24
422194 (antisense e[5mC]*eT*eG*dA*dG*d[5mC]*dG*d[5mC]*dG*dG*dA*dA*dG*dA*dA*dG*dG*eG*eA*e[5mC]) [compound 422194] | 11

Same assay, conditions: Example 6 microwalk, nucleobases 15098 to 15122 of SEQ ID NO: 1; HepB3, lipofectin, 50 nM, ~24 h

Substance | % Inhibition (human Factor 7 mRNA) [%]
422288 (antisense eA*e[5mC]*dA*dG*d[5mC]*dA*d[5mC]*dA*d[5mC]*dA*dT*dG*dG*dA*dG*eT*e[5mC]*eA*eG*e[5mC]) [compound 422288] | 44
422286 (antisense eA*eG*d[5mC]*dA*d[5mC]*dA*d[5mC]*dA*dT*dG*dG*dA*dG*dT*d[5mC]*eA*eG*e[5mC]*eA*eT) [compound 422286] | 53
416479 (antisense eG*eA*e[5mC]*eA*eG*d[5mC]*dA*d[5mC]*dA*d[5mC]*dA*dT*dG*dG*dA*eG*eT*e[5mC]*eA*eG) [compound 416479] | 47

Same assay, conditions: HepB3 cells, lipofectin, 50 nM antisense oligonucleotide, approximately 24 hours, primer probe set RTS 2927, relative to untreated control

Substance | % Inhibition of human Factor 7 mRNA levels [%]
416424 (antisense eG*eA*eG*eA*e[5mC]*d[5mC]*dA*dT*dG*dA*dT*dG*dA*dA*dA*eT*e[5mC]*eT*e[5mC]*eT) [compound 416424] | 27
416479 (antisense eG*eA*e[5mC]*eA*eG*d[5mC]*dA*d[5mC]*dA*d[5mC]*dA*dT*dG*dG*dA*eG*eT*e[5mC]*eA*eG) [compound 416479] | 56
416452 (antisense e[5mC]*e[5mC]*eA*eA*e[5mC]*dA*dA*d[5mC]*dA*dG*dG*dA*d[5mC]*d[5mC]*dT*eG*e[5mC]*e[5mC]*eA*eT) [compound 416452] | 19
416458 (antisense eG*eG*e[5mC]*eG*eG*dA*dG*d[5mC]*dA*dG*d[5mC]*dG*d[5mC]*dG*dA*eT*eG*eT*e[5mC]*eG) [compound 416458] | 29
416501 (antisense e[5mC]*eT*eG*e[5mC]*e[5mC]*d[5mC]*dT*dT*d[5mC]*d[5mC]*dA*d[5mC]*d[5mC]*dA*dA*eG*eT*eT*eT*eA) [compound 416501] | 18
416513 (antisense e[5mC]*eT*eG*eA*eT*dG*dT*dG*dA*dA*dA*dA*d[5mC]*d[5mC]*dG*eG*e[5mC]*eA*eT*eG) [compound 416513] | 37
416550 (antisense eT*eG*eG*e[5mC]*eT*dG*dG*d[5mC]*dT*dG*dA*dG*dG*dA*dG*eA*e[5mC]*eA*eA*eT) [compound 416550] | 55
416470 (antisense eG*e[5mC]*eT*eT*eT*dT*dG*d[5mC]*dA*dG*d[5mC]*d[5mC]*dA*d[5mC]*dT*e[5mC]*eG*eA*eT*eG) [compound 416470] | 39

Same assay, conditions: HepB3 cells; gapmers (5-10-5, 3-14-3, 2-13-5 MOE) targeted to nucleobases 4868 to 4899 of SEQ ID NO: 1

Substance | % Inhibition of human Factor 7 mRNA levels [%]
422138 (antisense eT*e[5mC]*eT*eG*e[5mC]*dA*dG*dG*dA*dG*d[5mC]*dG*dG*d[5mC]*d[5mC]*eT*eA*eA*eA*eT) [compound 422138] | 70
422141 (antisense eA*eG*eT*eT*e[5mC]*dT*dG*d[5mC]*dA*dG*dG*dA*dG*d[5mC]*dG*eG*e[5mC]*e[5mC]*eT*eA) [compound 422141] | 64

Same assay, conditions: HepB3 cells; gapmers targeted to nucleobases 11830 to 11869 of SEQ ID NO: 1 (Table 9)

Substance | % Inhibition of human Factor 7 mRNA levels [%]
422244 (antisense eG*eA*dG*dG*dA*dG*dA*d[5mC]*dA*dA*dT*dG*dG*dT*d[5mC]*eA*eG*eG*eG*e[5mC]) [compound 422244] | 55
422089 (antisense eG*eT*e[5mC]*eA*eG*dG*dG*d[5mC]*dT*dG*dG*dT*dT*dT*dT*eG*eG*eA*eG*eG) [compound 422089] | 22
422169 (antisense e[5mC]*eT*eG*dA*dG*dG*dA*dG*dA*d[5mC]*dA*dA*dT*dG*dG*dT*d[5mC]*eA*eG*eG) [compound 422169] | 56
422165 (antisense eG*eG*eA*dG*dA*d[5mC]*dA*dA*dT*dG*dG*dT*d[5mC]*dA*dG*dG*dG*e[5mC]*eT*eG) [compound 422165] | 57
422091 (antisense eT*eG*eG*eT*e[5mC]*dA*dG*dG*dG*d[5mC]*dT*dG*dG*dT*dT*eT*eT*eG*eG*eA) [compound 422091] | 42

Same assay, conditions: HepB3 cells; gapmers targeted to nucleobases 13760 to 13789 of SEQ ID NO: 1 (Table 10)

Substance | % Inhibition of human Factor 7 mRNA levels [%]
422179 (antisense e[5mC]*eA*e[5mC]*d[5mC]*d[5mC]*dG*d[5mC]*d[5mC]*dG*dG*d[5mC]*dT*d[5mC]*dT*dG*d[5mC]*dT*e[5mC]*eA*eT) [compound 422179] | 43
422116 (antisense eT*eG*e[5mC]*eG*e[5mC]*d[5mC]*dA*d[5mC]*d[5mC]*d[5mC]*dG*d[5mC]*d[5mC]*dG*dG*e[5mC]*eT*e[5mC]*eT*eG) [compound 422116] | 52

Same assay, conditions: HepB3 cells; gapmers targeted to nucleobases 14707 to 14732 of SEQ ID NO: 1 (Table 11)

Substance | % Inhibition of human Factor 7 mRNA levels [%]
422280 (antisense e[5mC]*eA*dG*d[5mC]*d[5mC]*dT*dG*dA*dG*dG*d[5mC]*d[5mC]*dA*dG*d[5mC]*eA*eG*eA*eT*e[5mC]) [compound 422280] | 52
422282 (antisense eA*eG*d[5mC]*dA*dG*d[5mC]*d[5mC]*dT*dG*dA*dG*dG*d[5mC]*d[5mC]*dA*eG*e[5mC]*eA*eG*eA) [compound 422282] | 48
422283 (antisense e[5mC]*eA*dG*d[5mC]*dA*dG*d[5mC]*d[5mC]*dT*dG*dA*dG*dG*d[5mC]*d[5mC]*eA*eG*e[5mC]*eA*eG) [compound 422283] | 50

Same assay, conditions: HepB3 cells; gapmers targeted to nucleobases 15188 to 15211 of SEQ ID NO: 1 (Table 13)

Substance | % Inhibition of human Factor 7 mRNA levels [%]
422151 (antisense eT*eG*e[5mC]*dA*dT*dG*dG*dT*dG*dA*dT*dG*d[5mC]*dT*dT*d[5mC]*dT*eG*eA*eA) [compound 422151] | 68
